The source of these data is patent US11324728B2, “Dosing regimens for the treatment of fungal infections” (Seren Pharmaceuticals Inc., priority 2017, dated 2022).

The data set in a line: Pharmacokinetics: toenail and plasma ravuconazole concentrations. The data set is classed as in vivo, human. As for the experimental part: A Phase II clinical pharmacology study was conducted in subjects with onychomycosis of the toenail. The study investigated the pharmacokinetics, efficacy and safety of three different dosing regimens of fosravuconazole. […] The three treatment groups were as follows: • a.

[1] abbreviates: fosravuconazole 100 mg (once daily dose) group.
Setting [2] is: fosravuconazole 400 mg (pulse treatment) group.

As to `C[C@@H](c1nc(-c2ccc(C#N)cc2)cs1)[C@](O)(Cn1cncn1)c1ccc(F)cc1F` [ravuconazole, 4-[2-[(2R,3R)-3-(2,4-difluorophenyl)-3-hydroxy-4-(1,2,4-triazol-1-yl)butan-2-yl]-1,3-thiazol-4-yl]benzonitrile], under setting [1], the “time toenail ravuconazole concentrations maintained at MIC90 or higher, longer than in 400 mg (pulse treatment) group” value was “about 4 weeks”; the “toenail ravuconazole concentrations versus MIC90, arithmetic mean” value was “exceeded MIC90 in arithmetic mean at Week 8 and maintained at MIC90 or higher until Week 28”; the “toenail ravuconazole concentrations versus MIC90, geometric mean” value is “exceeded MIC90 at Week 12 after the study treatment initiation and maintained at MIC90 or higher until Week 24”. Besides, the “toenail ravuconazole concentrations compared with 400 mg (pulse treatment) group” value (fosravuconazole 100 mg (once daily dose) group, Week 20 and onwards) is “fluctuated at higher levels”. The “toenail ravuconazole concentrations, arithmetic mean and geometric mean” value (fosravuconazole 200 mg (pulse treatment) group) was not above 60 ng/mL. Under setting [2], the “toenail ravuconazole concentrations versus MIC90, arithmetic mean” value was “exceeded MIC90 in arithmetic mean at Week 8 after the study treatment initiation and maintained at MIC90 or higher until Week 24”; the “toenail ravuconazole concentrations versus MIC90, geometric mean” value was “exceeded MIC90 at Week 12 after the study treatment initiation and maintained at MIC90 or higher until Week 24”.
